Type in all cases: functional
One test concerns Cryptococcus neoformans. The test is described as follows: Antimicrobial activity against Cryptococcus neoformans.
A further test concerns Aspergillus fumigatus. The test can be described thus: Antimicrobial activity against Aspergillus fumigatus.
The subject of a further test is Candida albicans. The test is described as follows: Antimicrobial activity against Candida albicans.

≈ marks a conversion by molar mass, not a printed value.

With `C[C@@H]1[C@H](O)[C@@H](C)/C=C/C=C/C=C/C=C/C=C/C=C/C=C/[C@H](O[C@@H]2O[C@H](C)[C@@H](O)[C@H](N)[C@@H]2O)C[C@@H]2O[C@](O)(C[C@@H](O)C[C@@H](O)[C@H](O)CC[C@@H](O)C[C@@H](O)CC(=O)O[C@H]1C)C[C@H](O)[C@H]2C(=O)O` [AMPHOTERICIN B], the MIC (commonly the smallest concentration in the dilution series that meets the test's criterion for growth inhibition) in the test on Cryptococcus neoformans stood at 0.39 µg/mL (≈ 0.422 µM).
Take `O=C1c2ccccc2-c2nccc3c2c1nc1ccccc13` [BENZOSAMPANGINE]: the MIC turned out to be 0.39 µg/mL (≈ 1.38 µM) with Aspergillus fumigatus, 0.39 µg/mL (≈ 1.38 µM) in the test on Candida albicans and 1.56 µg/mL (≈ 5.53 µM) against Cryptococcus neoformans.

For the origin of these results see ChEMBL document CHEMBL1154551, “Microbial transformation of benzosampangine” (2000).
